Results taken from EP4523686A1, “A SIGMA-1 RECEPTOR POSITIVE MODULATOR FOR ITS USE IN THE PREVENTION AND THE TREATMENT OF A PATHOLOGY” (priority 2023, dated 2025).

Test system: Aβ25-35-induced learning impairments in mice
Assay: Spontaneous alternation in the Y-maze, Aβ25-35 model of Alzheimer's disease
Format: in vivo
Details: 0.3-3 mg/kg IP, all doses, single administration on day 1, test on day 8
Procedure: Amyloid-β[25-35] peptide (Aβ25-35) was from Eurogentec (Angers, France). It was solubilized in distilled water at 3 mg/ml and stored at -20°C until use. Before injection, the peptide was incubated at 37°C for 4 days, allowing oligomerization. Control injection was performed with vehicle solution (distilled water), and intracerebroventricularly (ICV) injections were done as described previously (Maurice et al., 1996, 2019).
The Y-maze is made of grey polyvinylchloride. Each arm is 40 cm long, 13 cm high, 3 cm wide at the bottom, 10 cm wide at the top, and converging at an equal angle. Each mouse was placed at the end of one arm and allowed to move freely through the maze during an 8 min session. The series of arm entries, including possible returns into the same arm, were checked visually. An alternation is defined as entries into all three arms on consecutive occasions. The number of maximum alternations is therefore the total number of arm entries minus two and the percentage of alternation was calculated as (actual alternations / maximum alternations) × 100 (Maurice et al., 1996; Meunier et al., 2006, 2013). Exclusion criteria are locomotion < 10 or percentage of alternation < 25% or > 90%. Animals showing these readouts are excluded from the calculations. Attrition is routinely < 5% in this test. […]

COc1ccc(C(=O)OC2CC3CCC(C2)N3C)cc1OC (stereo not shown) [Convolamine, (8-methyl-8-azabicyclo[3.2.1]octan-3-yl) 3,4-dimethoxybenzoate] was tested, and the “Aβ25-35-induced deficit in spontaneous alternation (in words)” value was “significantly attenuated”.
